The source made the active and inactive calls. The calls are words filed in the database; no cut-off is given here.
Columns and labels:
[1] = system: NIH3T3; assay: Inhibition of TNF-alpha induced necroptosis in mouse 3T3SA cells assessed as increase in cell viability at 0.04 to 1 uM incubated for 18 hrs in presence of zVAD by Cell Titer-Glo luminescent cell viability assay; format: functional, cell-based; conditions: dose 0.04-1 µM
[2] = molecular target: Mitogen-activated protein kinase 8 (Homo sapiens) (UniProt P45983); assay: Inhibition of human JNK1 using ATF2 as substrate at 1 uM in presence of 32P-ATP by Hotspot assay relative to control; values are per cent of control
[3] = molecular target: Casein kinase II subunit alpha (Homo sapiens) (UniProt P68400); assay: Inhibition of human CK2a using RRRDDDSDDD as substrate at 1 uM in presence of 32P-ATP by Hotspot assay relative to control; values are per cent of control
[4] = molecular target: Serine/threonine-protein kinase PAK 3 (Homo sapiens) (UniProt O75914); assay: Inhibition of human PAK3 using RRRLSFAEPG as substrate at 1 uM in presence of 32P-ATP by Hotspot assay relative to control; values are per cent of control
[5] = molecular target: RAC-beta serine/threonine-protein kinase (Homo sapiens) (UniProt P31751); assay: Inhibition of human AKT2 using KGSGSGRPRTSSFAEG as substrate at 1 uM in presence of 32P-ATP by Hotspot assay relative to control; values are per cent of control
[6] = molecular target: Leucine-rich repeat serine/threonine-protein kinase 2 (Homo sapiens) (UniProt Q5S007); assay: Inhibition of human LRRK2 using RLGRDKYKTLRQIRQ as substrate at 1 uM in presence of 32P-ATP by Hotspot assay relative to control; values are per cent of control
[7] = molecular target: Serine/threonine-protein kinase WNK3 (Homo sapiens) (UniProt Q9BYP7); assay: Inhibition of human WNK3 using myelin basic protein as substrate at 1 uM in presence of 32P-ATP by Hotspot assay relative to control; values are per cent of control
[8] = molecular target: T1, Serine/threonine-protein kinase BRSK1 (Homo sapiens) (UniProt Q8TDC3); assay: Inhibition of human BRSK1 using KKKVSRSGLYRSPSMPENLNRPR as substrate at 1 uM in presence of 32P-ATP by Hotspot assay relative to control; values are per cent of control
T1 sequence (whole entry): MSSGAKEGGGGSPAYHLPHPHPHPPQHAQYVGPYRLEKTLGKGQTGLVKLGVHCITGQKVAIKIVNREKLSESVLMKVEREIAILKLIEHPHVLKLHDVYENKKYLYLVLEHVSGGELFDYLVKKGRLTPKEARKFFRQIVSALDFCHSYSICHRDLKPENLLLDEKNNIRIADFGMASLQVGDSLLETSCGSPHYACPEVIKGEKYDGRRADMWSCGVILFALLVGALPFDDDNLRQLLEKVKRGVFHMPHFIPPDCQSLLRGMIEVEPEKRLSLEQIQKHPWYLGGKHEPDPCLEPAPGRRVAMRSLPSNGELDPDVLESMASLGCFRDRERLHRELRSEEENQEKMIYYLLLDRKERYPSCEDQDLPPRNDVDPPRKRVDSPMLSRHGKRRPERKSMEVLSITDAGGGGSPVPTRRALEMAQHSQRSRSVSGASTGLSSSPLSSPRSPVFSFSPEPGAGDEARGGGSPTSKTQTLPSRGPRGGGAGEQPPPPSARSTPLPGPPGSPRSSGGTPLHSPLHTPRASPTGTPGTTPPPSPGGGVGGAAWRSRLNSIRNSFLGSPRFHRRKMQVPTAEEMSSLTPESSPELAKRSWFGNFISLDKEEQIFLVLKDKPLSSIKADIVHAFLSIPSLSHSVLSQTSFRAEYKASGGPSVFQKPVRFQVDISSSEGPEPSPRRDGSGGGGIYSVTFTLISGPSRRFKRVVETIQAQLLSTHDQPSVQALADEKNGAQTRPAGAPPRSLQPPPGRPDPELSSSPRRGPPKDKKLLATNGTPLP

[9] = molecular target: T2, Mitogen-activated protein kinase kinase kinase kinase 2 (Homo sapiens) (UniProt Q12851); assay: Inhibition of human GCK/MAP4K2 using myelin basic protein as substrate at 1 uM in presence of 32P-ATP by Hotspot assay relative to control; values are per cent of control
T2 sequence (whole entry): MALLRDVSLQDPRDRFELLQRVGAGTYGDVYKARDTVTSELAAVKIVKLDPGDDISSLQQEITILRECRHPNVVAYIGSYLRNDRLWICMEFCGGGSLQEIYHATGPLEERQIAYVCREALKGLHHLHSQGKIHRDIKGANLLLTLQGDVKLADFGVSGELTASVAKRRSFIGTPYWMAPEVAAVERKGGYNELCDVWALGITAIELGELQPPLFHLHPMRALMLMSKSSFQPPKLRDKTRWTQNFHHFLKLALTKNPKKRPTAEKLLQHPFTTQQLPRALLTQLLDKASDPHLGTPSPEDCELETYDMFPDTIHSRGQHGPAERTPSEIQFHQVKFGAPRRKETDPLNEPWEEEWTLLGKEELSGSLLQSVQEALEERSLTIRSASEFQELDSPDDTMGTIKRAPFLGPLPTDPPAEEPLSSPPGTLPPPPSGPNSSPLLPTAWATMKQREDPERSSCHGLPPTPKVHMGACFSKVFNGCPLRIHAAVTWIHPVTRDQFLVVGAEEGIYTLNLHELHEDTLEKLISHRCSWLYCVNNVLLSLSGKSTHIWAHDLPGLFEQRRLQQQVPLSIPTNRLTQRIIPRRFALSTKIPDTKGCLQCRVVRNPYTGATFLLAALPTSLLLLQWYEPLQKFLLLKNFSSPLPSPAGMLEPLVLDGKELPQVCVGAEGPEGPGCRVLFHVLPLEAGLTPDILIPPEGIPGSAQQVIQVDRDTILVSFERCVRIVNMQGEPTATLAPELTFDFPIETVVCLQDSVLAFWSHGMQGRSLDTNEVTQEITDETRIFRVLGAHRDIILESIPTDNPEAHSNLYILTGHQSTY

Sequence of RAC-beta serine/threonine-protein kinase (Homo sapiens) (P31751 whole entry): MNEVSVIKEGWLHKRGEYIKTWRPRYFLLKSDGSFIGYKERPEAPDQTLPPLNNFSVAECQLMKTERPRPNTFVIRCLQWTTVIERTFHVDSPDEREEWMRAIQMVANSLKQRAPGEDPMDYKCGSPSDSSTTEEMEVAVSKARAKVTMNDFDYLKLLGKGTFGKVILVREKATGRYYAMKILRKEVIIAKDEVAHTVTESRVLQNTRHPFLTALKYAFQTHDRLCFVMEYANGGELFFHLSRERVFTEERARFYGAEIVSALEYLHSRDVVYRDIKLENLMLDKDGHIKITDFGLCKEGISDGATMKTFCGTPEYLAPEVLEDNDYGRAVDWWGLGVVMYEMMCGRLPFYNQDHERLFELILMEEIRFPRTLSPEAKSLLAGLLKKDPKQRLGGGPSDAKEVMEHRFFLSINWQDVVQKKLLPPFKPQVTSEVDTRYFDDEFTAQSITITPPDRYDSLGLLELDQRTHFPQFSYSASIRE
Sequence of Serine/threonine-protein kinase WNK3 (Homo sapiens) (Q9BYP7 whole entry): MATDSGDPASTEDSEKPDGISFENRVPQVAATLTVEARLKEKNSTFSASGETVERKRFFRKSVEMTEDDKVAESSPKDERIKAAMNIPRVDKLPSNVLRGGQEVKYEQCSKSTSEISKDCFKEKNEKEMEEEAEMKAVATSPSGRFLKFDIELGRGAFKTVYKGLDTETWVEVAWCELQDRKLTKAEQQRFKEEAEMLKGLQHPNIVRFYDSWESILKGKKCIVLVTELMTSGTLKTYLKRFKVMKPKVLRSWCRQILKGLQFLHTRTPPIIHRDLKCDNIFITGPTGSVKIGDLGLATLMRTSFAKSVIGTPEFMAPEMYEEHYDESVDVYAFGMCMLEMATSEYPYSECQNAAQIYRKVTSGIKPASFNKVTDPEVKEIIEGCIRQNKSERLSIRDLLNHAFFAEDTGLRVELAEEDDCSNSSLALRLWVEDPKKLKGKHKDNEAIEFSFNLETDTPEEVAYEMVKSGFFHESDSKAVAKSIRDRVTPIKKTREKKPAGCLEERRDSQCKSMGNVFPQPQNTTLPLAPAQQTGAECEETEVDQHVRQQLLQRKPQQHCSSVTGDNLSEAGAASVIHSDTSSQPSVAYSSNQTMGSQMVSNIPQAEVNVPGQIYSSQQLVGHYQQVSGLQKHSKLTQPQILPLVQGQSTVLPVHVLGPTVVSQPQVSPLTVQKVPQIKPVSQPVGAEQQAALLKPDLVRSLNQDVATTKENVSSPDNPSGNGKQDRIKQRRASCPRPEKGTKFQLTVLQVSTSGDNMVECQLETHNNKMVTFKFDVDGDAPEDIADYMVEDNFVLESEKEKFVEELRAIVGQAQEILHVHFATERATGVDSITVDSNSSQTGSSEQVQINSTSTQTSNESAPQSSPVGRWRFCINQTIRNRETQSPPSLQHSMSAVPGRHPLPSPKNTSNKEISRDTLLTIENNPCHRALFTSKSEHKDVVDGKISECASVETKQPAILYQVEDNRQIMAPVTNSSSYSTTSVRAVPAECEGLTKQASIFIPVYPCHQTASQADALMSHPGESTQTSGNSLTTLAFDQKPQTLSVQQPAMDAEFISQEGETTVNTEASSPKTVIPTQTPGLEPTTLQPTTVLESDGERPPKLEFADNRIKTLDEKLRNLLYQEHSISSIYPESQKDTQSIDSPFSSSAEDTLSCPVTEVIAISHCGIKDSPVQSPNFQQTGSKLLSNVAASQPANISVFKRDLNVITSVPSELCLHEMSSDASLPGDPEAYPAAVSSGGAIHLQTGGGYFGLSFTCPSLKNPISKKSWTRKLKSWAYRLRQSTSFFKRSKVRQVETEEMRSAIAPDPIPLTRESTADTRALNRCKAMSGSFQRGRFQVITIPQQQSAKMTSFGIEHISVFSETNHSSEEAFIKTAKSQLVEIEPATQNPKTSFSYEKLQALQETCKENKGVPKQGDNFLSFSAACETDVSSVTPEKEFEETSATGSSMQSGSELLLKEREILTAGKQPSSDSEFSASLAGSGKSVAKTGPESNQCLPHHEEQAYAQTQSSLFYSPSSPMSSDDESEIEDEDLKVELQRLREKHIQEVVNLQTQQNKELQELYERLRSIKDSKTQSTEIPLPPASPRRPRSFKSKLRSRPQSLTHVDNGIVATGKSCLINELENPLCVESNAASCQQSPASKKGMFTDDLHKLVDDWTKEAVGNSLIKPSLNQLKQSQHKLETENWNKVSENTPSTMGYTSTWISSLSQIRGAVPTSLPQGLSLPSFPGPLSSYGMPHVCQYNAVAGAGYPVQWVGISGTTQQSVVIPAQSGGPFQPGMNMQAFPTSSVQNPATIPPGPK
Sequence of Leucine-rich repeat serine/threonine-protein kinase 2 (Homo sapiens) (Q5S007 whole entry): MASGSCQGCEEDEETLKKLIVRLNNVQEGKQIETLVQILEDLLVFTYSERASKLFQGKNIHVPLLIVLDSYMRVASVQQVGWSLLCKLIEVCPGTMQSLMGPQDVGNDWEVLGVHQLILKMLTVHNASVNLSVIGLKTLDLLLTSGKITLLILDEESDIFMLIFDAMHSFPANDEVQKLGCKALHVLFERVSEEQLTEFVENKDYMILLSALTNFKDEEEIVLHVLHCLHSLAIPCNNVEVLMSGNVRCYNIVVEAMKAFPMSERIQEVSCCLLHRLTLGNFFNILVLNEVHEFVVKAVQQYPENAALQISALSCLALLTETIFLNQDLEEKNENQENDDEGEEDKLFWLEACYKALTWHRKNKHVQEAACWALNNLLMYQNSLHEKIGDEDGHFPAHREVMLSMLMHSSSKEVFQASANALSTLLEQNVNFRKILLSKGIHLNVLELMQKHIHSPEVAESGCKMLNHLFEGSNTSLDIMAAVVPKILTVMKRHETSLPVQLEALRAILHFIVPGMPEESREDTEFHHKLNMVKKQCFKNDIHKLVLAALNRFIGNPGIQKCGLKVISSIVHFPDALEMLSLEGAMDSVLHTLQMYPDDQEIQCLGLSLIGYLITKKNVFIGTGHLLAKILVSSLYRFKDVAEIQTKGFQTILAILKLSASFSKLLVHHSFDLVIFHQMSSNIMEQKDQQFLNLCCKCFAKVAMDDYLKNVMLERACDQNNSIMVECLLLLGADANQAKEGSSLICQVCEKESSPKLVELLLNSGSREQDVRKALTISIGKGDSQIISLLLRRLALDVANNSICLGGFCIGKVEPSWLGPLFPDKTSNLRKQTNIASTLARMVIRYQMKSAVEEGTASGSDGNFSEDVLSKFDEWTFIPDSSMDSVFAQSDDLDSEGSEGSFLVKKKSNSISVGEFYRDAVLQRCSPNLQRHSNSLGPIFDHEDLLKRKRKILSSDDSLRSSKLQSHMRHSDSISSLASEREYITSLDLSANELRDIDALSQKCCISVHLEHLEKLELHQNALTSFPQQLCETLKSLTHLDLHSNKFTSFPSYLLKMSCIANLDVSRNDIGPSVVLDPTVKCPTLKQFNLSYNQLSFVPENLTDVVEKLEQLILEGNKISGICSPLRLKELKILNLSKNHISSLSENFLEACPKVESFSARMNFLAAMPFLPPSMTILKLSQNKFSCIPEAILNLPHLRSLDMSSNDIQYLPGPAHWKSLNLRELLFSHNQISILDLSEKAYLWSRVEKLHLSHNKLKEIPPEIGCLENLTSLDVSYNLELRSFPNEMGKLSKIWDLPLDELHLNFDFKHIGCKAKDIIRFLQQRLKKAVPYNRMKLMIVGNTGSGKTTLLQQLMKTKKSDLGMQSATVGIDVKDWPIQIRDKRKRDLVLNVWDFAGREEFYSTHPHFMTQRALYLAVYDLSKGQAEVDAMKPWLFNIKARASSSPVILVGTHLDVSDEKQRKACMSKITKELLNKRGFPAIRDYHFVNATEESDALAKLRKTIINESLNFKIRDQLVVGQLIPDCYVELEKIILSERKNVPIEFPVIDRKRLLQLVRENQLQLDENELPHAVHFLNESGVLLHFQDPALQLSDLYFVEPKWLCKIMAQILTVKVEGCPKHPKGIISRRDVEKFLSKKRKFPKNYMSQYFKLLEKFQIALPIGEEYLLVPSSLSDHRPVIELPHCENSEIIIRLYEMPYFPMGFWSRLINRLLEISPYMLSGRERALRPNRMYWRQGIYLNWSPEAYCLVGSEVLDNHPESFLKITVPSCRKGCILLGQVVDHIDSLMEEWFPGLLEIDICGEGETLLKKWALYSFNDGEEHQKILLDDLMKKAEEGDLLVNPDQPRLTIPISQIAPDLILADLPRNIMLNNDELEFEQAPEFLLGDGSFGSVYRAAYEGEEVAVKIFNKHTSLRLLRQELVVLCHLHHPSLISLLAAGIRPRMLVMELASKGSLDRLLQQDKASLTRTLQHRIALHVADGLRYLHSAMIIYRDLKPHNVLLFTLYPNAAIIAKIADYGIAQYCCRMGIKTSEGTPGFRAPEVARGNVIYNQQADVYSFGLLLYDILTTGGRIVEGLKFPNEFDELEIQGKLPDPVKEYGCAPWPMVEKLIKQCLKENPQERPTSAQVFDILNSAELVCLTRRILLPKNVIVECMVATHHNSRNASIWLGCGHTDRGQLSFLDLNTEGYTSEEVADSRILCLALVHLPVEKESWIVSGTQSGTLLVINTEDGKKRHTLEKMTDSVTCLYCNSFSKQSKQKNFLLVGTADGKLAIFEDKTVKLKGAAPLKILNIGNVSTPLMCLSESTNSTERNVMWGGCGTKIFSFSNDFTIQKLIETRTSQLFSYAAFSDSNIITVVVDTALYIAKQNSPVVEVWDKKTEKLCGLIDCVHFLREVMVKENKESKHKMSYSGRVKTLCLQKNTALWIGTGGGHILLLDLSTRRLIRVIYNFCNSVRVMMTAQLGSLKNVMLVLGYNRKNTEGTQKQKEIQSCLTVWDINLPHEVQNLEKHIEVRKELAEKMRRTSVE

Row | SMILES | inhibition [1] | residual activity [2] [%] | residual activity [3] [%] | residual activity [4] [%] | residual activity [5] [%] | residual activity [6] [%] | residual activity [7] [%] | residual activity [8] [%] | residual activity [9] [%]
1 | Cc1cc(-c2cnc(N)c3c(-c4ccc5scnc5c4)csc23)n(C)n1 | Active | 91.6 | 54.7 | 96.6 | 95.4 | 88.5 | 83 | 101 | 68.1
2 | CC(C)S(=O)(=O)c1ccc2nccc(Nc3ccc4scnc4c3)c2c1 | Active | 96.8 | 92.4 | 97.8 | 89 | 90.5 | 104 | 101 | 88.3
3 | CNC(=O)c1ccc2c(c1)ncn2-c1ccc(CC(=O)OC(C)(C)C)cc1 | inactive | 103 | 75.6 | 105 | 96.8 | 94.5 | 99.9 | 96.6 | 91.8

From ChEMBL document CHEMBL5649166, “RIP3 induces apoptosis independent of pronecrotic kinase activity” (Mol Cell, 2014)
